The values below come from PMC4021065, “A novel, non-radioactive eukaryotic in vitro transcription assay for sensitive quantification of RNA polymerase II activity” (BMC Molecular Biology, 2014).

Assay [1] concerns the target T1, RNA polymerase II (Homo sapiens, UniProt P24928).
T1 construct: a well-defined nuclear extract providing the RNA polymerase II and a basal set of transcription factors; purchased Promega; host or cells: HeLa cell nuclear extract (endogenous enzyme)
Briefly: biochemical. Particulars: for IC50: QuantiGene, read-out: IC50 (RNA synthesis).

The target in assay [2] is T1, RNA polymerase II. The experiment in a line: In vitro transcription with primer extension and qPCR (EGFP-LNA1 probe) detection, pEGFP-N1 / CMV-EGFP templates. It is filed as biochemical. As for the experimental part:
(§1) Transcription reactions were set up as using the Promega HeLaScribe Nuclear Extract in vitro Transcription System were set up as described by the manufacturer with some modifications. The reaction volume was doubled to 50 μl. A master mix was prepared from a volume transcription buffer (20 mM HEPES, pH 7.9, 100 mM KCl, 0.2 mM EDTA, 0.5 mM DTT, 20% glycerol) corresponding to 22 μl minus the nuclear extract volume, MgCl2 to a final concentration of 3 mM, 40 Units RNase inhibitor, DNA template (1 μg pEGFP-N1 plasmid or 150 ng linear DNA fragment CMV-EGFP, respectively) and the nuclear extract following the manufacturer’s recipe. Aliquots of the master mix were transferred into reaction tubes containing different α-amanitin concentrations or water and incubated for 20 min at room temperature. Standard transcription reactions containing no α-amanitin were referred as ‘positive’, reactions containing α-amanitin or other inhibitors as ’inhibited’. A standard reaction containing no α-amanitin/inhibitors but also no NTPs was used as a ‘negative control transcription’. The reactions were started by the addition of the NTP mix to a final concentration of 400 μM each, except for the negative control where water was added. After incubating for 30 min at 30°C, the reactions were stopped by diluting with 400 μl of the RLT buffer from the Qiagen RNeasy Micro kit and stored at −80°C until proceeding with RNeasy cleanup. This was performed as recommended by the manufacturer, including on-column DNase treatment but without the addition of carrier RNA. The RNA was eluted using 15 μl water and stored at −80°C.
The purified RNA was once more DNase-treated using the Epicentre BaselineZero DNase kit as recommended by the manufacturer, 8.8 μl of the RNA being digested in a final volume of 10 μl. As a second negative control, 50 ng of the linear DNA fragment CMV-EGFP were directly DNase-digested and further processed as the RNA samples (‘DNase control’). For reverse transcription with the Qiagen Sensiscript RT kit, 2 μl of the digestion reaction and 1 μM EGFPrev1 primer (Table 1) were used in a final reaction volume of 20 μl. After reaction, 1 μl of the reverse transcription mix was transferred to PCR tubes containing 24 μl PCR mix aliquots. The standard PCR amplification was performed using the Epicentre Failsafe PCR system with the Mix A and the EGFPrev1 and EGFPfrw1 (Table 1) primer mix. Positive PCR control reactions contained 50 ng pEGFP-N1 plasmid; negative PCR controls contained no DNA. After amplification, the products were analyzed by gel electrophoresis onto 1.5% agarose.
For quantitation using SYBR detection, the Qiagen QuantiFast SYBR green qPCR kit was used. 1 μl of the reverse transcription mix was amplified in 25 μl reaction mix containing 500 nM of each EGFP-rev1 and EGFP-frw1 primer. For quantitation using the sequence-specific LNA probe EGFP-LNA1 at 250 nM, same primer set as well as an alternative primer set (EGFPfrw2 and EGFPrew2, Table 1) at 500 nM each and Sigma Jumpstart Taq ReadyMix for qPCR were used. 2 μl of the reverse transcription reaction were diluted into qPCR reactions with a final volume of 20 μl and qPCR performed in a Bio-Rad DNAEngine lightcycler. A qPCR standard curve was prepared from the CMV-EGFP DNA fragment and used for RNA copy number calculations. The amount of RNA in the inhibited probes was related to the RNA amount detected for the positive transcription reaction.

Assay [3] addresses T1, RNA polymerase II. The experiment in a line: In vitro transcription (HeLaScribe nuclear extract) with primer extension and PCR gel detection. It is filed as biochemical. As for the experimental part:
as §1, with “The reactions were started by the addition of the NTP mix to a final concentration of 400 μM each, except for the negative control where water was added. After incubating for 30 min at 30°C, the reactions were stopped by diluting with 400 μl of the RLT buffer from the Qiagen RNeasy Micro kit and stored at −80°C until proceeding with RNeasy cleanup. This was performed as recommended by the manufacturer, including on-column DNase treatment but without the addition of carrier RNA. The RNA was eluted using 15 μl water and stored at −80°C.” left out
The purified RNA was once more DNase-treated using the Epicentre BaselineZero DNase kit as recommended by the manufacturer, 8.8 μl of the RNA being digested in a final volume of 10 μl. […] After amplification, the products were analyzed by gel electrophoresis onto 1.5% agarose.

In assay [4] the target is T1, RNA polymerase II. It is filed as biochemical. The conditions noted are these: for IC50: qPCR, read-out: IC50 (RNA synthesis).
Assay [5] relates to RNA polymerase II. The conditions noted are these: cited from earlier work.
Where [6] appears, read: 200 nM, template HS-DNA_mut (TATA box mutated).

Like-named read-outs stand apart in the source and are kept apart here.

For the compound `CC[C@H](C)[C@@H]1NC(=O)CNC(=O)[C@@H]2Cc3c([nH]c4cc(O)ccc34)[S@+]([O-])C[C@H](NC(=O)CNC1=O)C(=O)N[C@@H](CC(N)=O)C(=O)N1C[C@H](O)C[C@H]1C(=O)N[C@@H]([C@@H](C)[C@@H](O)CO)C(=O)N2` [α-amanitin], at RNA polymerase II [1] (200 nM, both templates (standard HS-DNA and TATA box mutant)), the “inhibition of transcription efficacy” value came out at 88 ± 1%. Further, the “% RNA synthesis (compared to respective positive control)” value was 12% ± 1% at RNA polymerase II [1] (setting [6]) and 12% ± 1% at RNA polymerase II [1] (200 nM, template HS-DNA_std). Further, the “Signal (RLU average)” value on RNA polymerase II [1] (setting [6]) came out at 130255 RLU; on RNA polymerase II [1] (200 nM, template HS-DNA_std) it was 161585 RLU. Besides, the IC50 is 5700 nM on RNA polymerase II [1] (Bead-HS-DNA template, Figure 5C); 54 nM on RNA polymerase II [1] (HS-DNA_long template, 10 min at 30°C, Figure 6C); 4 nM on RNA polymerase II [1] (standard HS-DNA template, 30 min at 30°C, Figure 6A). For the same compound, the “qPCR C(T) value of inhibited transcription” value at RNA polymerase II [2] (linear CMV-EGFP template, 2 μM, uninhibited C(T) 16.1, Figure 3B) amounted to 24.5; at RNA polymerase II [2] (linear CMV-EGFP template, 20 μM, uninhibited C(T) 16.1, Figure 3B) it was 28.1; at RNA polymerase II [2] (linear CMV-EGFP template, 50 μM, uninhibited C(T) 16.1, Figure 3B), 37.0; on RNA polymerase II [2] (linear CMV-EGFP template, 100 μM, uninhibited C(T) 16.1, Figure 3B, C), 27.9; on RNA polymerase II [2] (pEGFP-N1 plasmid template, 100 μM, uninhibited C(T) 17.6 / 18.0, Figure 3A, C) it was 21.7. In addition, on RNA polymerase II [3] (linear CMV-EGFP template, 400, 100 and 20 μM, Figure 2B), the “inhibitory effect on transcription (PCR product on gel)” value was “gradually increasing inhibitory effects”. Besides, the “amount of PCR product after transcription” value at RNA polymerase II [3] (pEGFP-N1 plasmid template, 100 μM, Figure 2A) is reported as “clearly diminished amount of PCR product”. In addition, on RNA polymerase II [4] (10 min, HS-DNA_long vs 30 min, standard template), the “inhibitory effect, short incubation vs standard (times lower)” value is “ca. 10 ×”.

On to `CN1CC[C@H](c2c(O)cc(O)c3c(=O)cc(-c4ccccc4Cl)oc23)[C@H](O)C1` [flavopiridol], for which the IC50 at RNA polymerase II [4] (HS-DNA_long template, 10 min at 30°C, second set of reactions) is 940 nM; on RNA polymerase II [4] (standard HS-DNA template, 30 min at 30°C, first set of reactions), > 125000 nM.

For `CCC(C)C1NC(=O)CNC(=O)C2Cc3c([nH]c4cc(OC)ccc34)[S+]([O-])CC(NC(=O)CNC1=O)C(=O)NC(CC(N)=O)C(=O)N1CC(O)CC1C(=O)NC(C(C)C(C)O)C(=O)N2` (stereo not shown) [6′–O-methyl-γ-amanitin], the “potency as RNA polymerase II inhibitor relative to α-amanitin (less potent)” value with RNA polymerase II [5] is “about two-fold”.
